Here are results for 21 molecules from patent publication US20230002361A1, “2H-INDAZOLE DERIVATIVES AND THEIR USE IN THE TREATMENT OF DISEASE” (BIOGEN MA INC., priority 2019, published 2023).

Where two headings read alike, the source gives them in different places.

One series concerns the target T1, IRAK4 (Homo sapiens, UniProt Q9NWZ3).
T1 construct: with 0.1 nM IRAK4, 1.6 μM of biotinylated peptide substrate and 10 μM ATP
T1 sequence (Q9NWZ3 1-460): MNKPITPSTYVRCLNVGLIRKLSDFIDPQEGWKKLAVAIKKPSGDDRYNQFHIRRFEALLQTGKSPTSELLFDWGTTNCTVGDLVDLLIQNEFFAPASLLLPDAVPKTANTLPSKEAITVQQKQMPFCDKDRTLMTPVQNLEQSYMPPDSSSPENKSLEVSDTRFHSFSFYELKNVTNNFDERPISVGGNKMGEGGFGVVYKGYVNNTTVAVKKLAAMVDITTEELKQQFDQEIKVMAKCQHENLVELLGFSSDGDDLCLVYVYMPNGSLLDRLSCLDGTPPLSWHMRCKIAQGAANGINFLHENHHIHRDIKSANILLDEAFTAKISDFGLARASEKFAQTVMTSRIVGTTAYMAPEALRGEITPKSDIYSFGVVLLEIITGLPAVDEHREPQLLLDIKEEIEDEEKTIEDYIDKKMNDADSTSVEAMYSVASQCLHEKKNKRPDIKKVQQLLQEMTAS
Put plainly: IRAK4 MSD Biochemical Assay (1 mM ATP, 2 h). The conditions noted are these: room temperature. In short, it runs like this: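 Run with 1 mM ATP and […] for 2 h, then quenched with EDTA, pH 8. The phosphorylated biotinylated peptide was captured on streptavidin plates and detected with anti-phospho-threonine antibody plus Sulfo-Tag secondary by MSD electrochemiluminescence.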

Series [1] has as its target T2, human MDR1 transfected MDCK cells (Homo sapiens, UniProt P08183).
T2 construct: host or cells: MDCK cells
Briefly: MDR1-MDCK assay (efflux ratio). The conditions noted are these: 1 μM compound, 120 minutes incubation. The class given is in vitro ADME. In short, it runs like this:
(§1)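 Human MDR1-transfected MDCK monolayers, cultured 7 days on transwell inserts with TEER checked, were dosed with compound at 1 μM in HBSS-HEPES. Transport was measured in both A-B and B-A directions. Efflux ratio came from the directional permeabilities, with mass balance also calculated.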

For the next series, the target named is T3, MDR1 (P-gp) (Homo sapiens, UniProt P08183).
T3 construct: host or cells: MDCK cells
Briefly: MDR1-MDCK assay (efflux ratio). The series is classed as in vitro ADME. The conditions noted are these: human, MDCK-MDR1, 1 μM compound, 120 minutes incubation; read-out: MDR1-MDCK Efflux Ratio; (B-A/A-B). In outline:
as §1

The mark [2] stands for this setting: read-out: IRAK4 MSD Biochemical Assay (1 mM ATP, 2 h) IC50.

T3 sequence (P08183 whole entry): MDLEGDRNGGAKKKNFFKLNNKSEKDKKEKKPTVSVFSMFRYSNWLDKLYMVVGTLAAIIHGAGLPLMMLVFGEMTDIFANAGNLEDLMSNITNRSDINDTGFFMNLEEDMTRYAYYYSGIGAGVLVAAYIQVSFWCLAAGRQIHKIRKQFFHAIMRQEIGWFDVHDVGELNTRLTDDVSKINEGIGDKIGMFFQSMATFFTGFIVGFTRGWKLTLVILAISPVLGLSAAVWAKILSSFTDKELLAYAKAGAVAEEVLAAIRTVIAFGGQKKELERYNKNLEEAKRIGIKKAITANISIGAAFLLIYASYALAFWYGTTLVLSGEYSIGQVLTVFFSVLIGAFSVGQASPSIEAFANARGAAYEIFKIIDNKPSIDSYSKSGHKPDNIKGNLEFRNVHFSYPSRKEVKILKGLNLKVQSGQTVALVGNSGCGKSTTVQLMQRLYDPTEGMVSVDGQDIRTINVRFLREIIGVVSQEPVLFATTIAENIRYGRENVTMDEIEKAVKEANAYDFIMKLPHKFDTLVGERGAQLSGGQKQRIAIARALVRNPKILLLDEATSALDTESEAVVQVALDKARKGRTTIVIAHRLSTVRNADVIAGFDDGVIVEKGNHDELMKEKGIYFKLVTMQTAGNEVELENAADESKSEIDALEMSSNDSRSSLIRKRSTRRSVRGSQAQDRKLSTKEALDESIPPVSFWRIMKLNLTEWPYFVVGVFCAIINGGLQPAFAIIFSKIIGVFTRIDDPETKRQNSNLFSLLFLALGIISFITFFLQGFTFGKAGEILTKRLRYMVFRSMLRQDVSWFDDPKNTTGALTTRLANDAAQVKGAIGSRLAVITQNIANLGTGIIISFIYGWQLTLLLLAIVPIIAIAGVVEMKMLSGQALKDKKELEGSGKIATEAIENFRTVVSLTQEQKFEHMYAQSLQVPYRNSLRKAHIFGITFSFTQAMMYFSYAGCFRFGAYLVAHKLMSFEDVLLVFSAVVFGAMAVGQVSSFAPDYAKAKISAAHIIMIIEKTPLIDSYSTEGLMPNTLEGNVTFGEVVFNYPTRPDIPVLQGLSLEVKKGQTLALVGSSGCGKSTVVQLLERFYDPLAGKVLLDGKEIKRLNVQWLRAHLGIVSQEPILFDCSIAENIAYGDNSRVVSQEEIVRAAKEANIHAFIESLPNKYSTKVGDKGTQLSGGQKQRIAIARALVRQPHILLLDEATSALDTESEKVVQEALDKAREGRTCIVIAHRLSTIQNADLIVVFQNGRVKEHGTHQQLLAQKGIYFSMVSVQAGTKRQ
T2 sequence (P08183 whole entry): as above

The IC50 is the concentration needed to halve the response being measured. On to `Cc1cnc2c(NC(=O)c3cc4cn(C5CCCOC5)nc4nc3OC3CCC3)cnn2c1` (single isomer, unassigned) [Example 132], for which, on IRAK4 (setting [2]), the IC50 turned out to be 0.1 nM. In addition, in series [1], the “MDR1-MDCK Efflux Ratio; (B-A/A-B)” value was determined as 2.0.

As to `CC12CCC(n3cc4cc(C(=O)Nc5cnn6cccnc56)c(OC5CCC5)cc4n3)(CO1)C2` (single isomer, unassigned) [Example 138], the IC50 on IRAK4 (setting [2]) is 0.2 nM. In series [1], the “MDR1-MDCK Efflux Ratio; (B-A/A-B)” value is recorded as 1.7.

For the molecule “6-Ethoxy-N-(2-methoxypyridin-3-yl)-2-(1-methyl-2-oxabicyclo[2.1.1]hexan-4-yl)-2H-indazole-5-carboxamide tfifluoroacetate [Example 85]”, on IRAK4 (setting [2]), the IC50 was found to be 0.9 nM. In addition, the “MDR1-MDCK Efflux Ratio; (B-A/A-B)” value in series [1] was 0.8.

On to `COc1cnc2c(NC(=O)c3cc4cn([C@]56CC[C@](C)(C5)OC6)nc4cc3OC(C)C)cnn2c1` (single isomer, unassigned) [Example 136], for which the IC50 at IRAK4 (setting [2]) came out at 1.4 nM. Also, the “MDR1-MDCK Efflux Ratio; (B-A/A-B)” value in series [1] stood at 2.3.

With `COc1cnc2c(NC(=O)c3cc4cn([C@@]56CC[C@@](C)(C5)OC6)nc4cc3OC(C)C)cnn2c1` (single isomer, unassigned) [Example 135], the IC50 at IRAK4 (setting [2]) was found to be 0.6 nM. Besides, the “MDR1-MDCK Efflux Ratio; (B-A/A-B)” value in series [1] turned out to be 2.3.

For the molecule `CC(C)Oc1nc2nn(CC3CCOC3)cc2cc1C(=O)Nc1ccn(C)n1` (stereo not drawn) [Example 79, 6-Isopropoxy-N-(1-methyl-1H-pyrazol-3-yl)-2-((tetrahydrofuran-3-yl)methyl)-2H-pyrazolo[3,4-b]pyridine-5-carboxamide], at IRAK4 (setting [2]), the IC50 came out at 10.6 nM. In addition, the efflux ratio at 120 min, 1 μM at MDR1 (P-gp) was 9.4.

Regarding `Cn1ccc(NC(=O)c2cc3cn(C4CCCOC4)nc3nc2OC2CCC2)n1` (single isomer, unassigned) [Example 129], the 50% inhibitory concentration (IC50) at IRAK4 (setting [2]) was 5.7 nM. On MDR1 (P-gp), the efflux ratio at 120 min, 1 μM was 3.4.

Regarding `COCCCn1cc2cc(C(=O)Nc3cccc(C(F)F)n3)c(OC(C)C)nc2n1.Cl` [Example 62, N-(6-(difluoromethyl)pyridin-2-yl)-6-isopropoxy-2-(3-methoxsypropyl)-2H-pyrazolo[3,4-b]pyridine-5-carboxamide hydrochloride], the concentration for half-maximal inhibition (IC50) at IRAK4 (setting [2]) worked out at 0.6 nM. On MDR1 (P-gp), the efflux ratio at 120 min, 1 μM amounted to 1.7.

Take `CC(C)Oc1nc2nn(CC3CCOC3)cc2cc1C(=O)Nc1ccn(C(F)F)n1` (stereo not drawn) [Example 80, N-(1-(difluoromethyl)-1H-pyrazol-3-yl)-6-isopropoxy-2-((tetrahydrofuran-3-yl)methyl)-2H-pyrazolo[3,4-b]pyridine-5-carboxamide]: the IC50 on IRAK4 (setting [2]) was determined as 6.4 nM. Besides, the efflux ratio at 120 min, 1 μM at MDR1 (P-gp) is 3.1.

As to `Cn1ccc(NC(=O)c2cc3cn(C45CCC(C)(CC4)OC5)nc3cc2OC2CCC2)n1` [Example 140, 6-cyclobutoxy-N-(1-methyl-1H-pyrazol-3-yl)-2-(1-methyl-2-oxabicyclo[2.2.2]octan-4-yl)-2H-indazole-5-carboxamide], the concentration for half-maximal inhibition (IC50) on IRAK4 (setting [2]) was determined as 0.9 nM. Besides, the efflux ratio at 120 min, 1 μM on MDR1 (P-gp) was determined as 0.9.

As to `Cc1ccn2ncc(NC(=O)c3cc4cn(C5CCCOC5)nc4nc3OC3CCC3)c2n1` (single isomer, unassigned) [Example 134], the IC50 at IRAK4 (setting [2]) came to 1 nM. The “MDR1-MDCK Efflux Ratio; (B-A/A-B)” value in series [1] came out at 2.1.

Turning to `O=C(Nc1ccn(C(F)F)n1)c1cc2cn(C[C@H]3CCOC3)nc2nc1OC1CCCC1` (single isomer, unassigned) [Example 116], the IC50 on IRAK4 (setting [2]) came to 3.8 nM. Besides, the efflux ratio at 120 min, 1 μM on MDR1 (P-gp) amounted to 2.5.

Regarding `COCCCn1cc2cc(C(=O)Nc3cccc(OC)n3)c(OC(C)C)nc2n1.Cl` [Example 61, 6-Isopropoxy-2-(3-methoxypropyl)-N-(6-methoxypyridin-2-yl)-2H-pyrazolo[3,4-b]pyridine-5-carboxamide hydrochloride], the IC50 on IRAK4 (setting [2]) amounted to 3.7 nM. At MDR1 (P-gp), the efflux ratio at 120 min, 1 μM was 1.1.

Regarding `CC(C)Oc1nc2nn(C3CCOCC3)cc2cc1C(=O)Nc1cccc(C(F)F)n1` [Example 63, N-(6-(difluoromethyl)pyridin-2-yl)-6-isopropoxy-2-(tetrahydro-2H-pyran-4-yl)-2H-pyrazolo[3,4-b]pyridine-5-carboxamide], the IC50 at IRAK4 (setting [2]) turned out to be 0.3 nM. Further, the efflux ratio at 120 min, 1 μM on MDR1 (P-gp) was 1.

For `COc1cccc(NC(=O)c2cc3cn(C45COC(C)(C4)C5)nc3cc2OC(C)C)n1` [Example 89, 6-Isopropoxy-N-(6-methoxypyridin-2-yl)-2-(1-methyl-2-oxabicyclo[2.1.1]hexan-4-yl)-2H-indazole-5-carboxamide trifluoroacetae], the IC50 on IRAK4 (setting [2]) stood at 1 nM. Also, at MDR1 (P-gp), the efflux ratio at 120 min, 1 μM is 0.6.

Regarding `CC(C)Oc1nc2nn(C[C@H]3CCOC3)cc2cc1C(=O)Nc1cccc(C(F)F)n1` (single isomer, unassigned) [Example 106], the IC50 on IRAK4 (setting [2]) came out at 0.4 nM. Further, on MDR1 (P-gp), the efflux ratio at 120 min, 1 μM came out at 0.8.

Take `COc1cccc(NC(=O)c2cc3cn(CC4CCOC4)nc3cc2OC)n1.O=C(O)C(F)(F)F` (stereo not drawn) [Example 1, 6-Methoxy-N-(6-methoxypyridin-2-yl)-2-((tetrahydrofuran-3-yl)methyl)-2H-indazole-5-carboxamide Trifluoroacetate]: at IRAK4 (setting [2]), the IC50 is 32.7 nM. For the same molecule, the efflux ratio at 120 min, 1 μM on MDR1 (P-gp) was found to be 1.1.

For `Cl.O=C(Nc1cccc(C(F)F)n1)c1cc2cn(C3CCOCC3)nc2cc1O[C@H]1C[C@H](C(F)F)C1` [Example 48, 6-((1R,3R)-3-(difluoromethyl)cyclobutoxy)-N-(6-(difluoromethyl)pyridin-2-yl)-2-(tetrahydro-2H-pyran-4-yl)-2H-indazole-5-carboxamide Hydrochloride], the IC50 at IRAK4 (setting [2]) was determined as 0.5 nM. Besides, the efflux ratio at 120 min, 1 μM at MDR1 (P-gp) worked out at 1.3.

Consider `COCCCn1cc2cc(C(=O)Nc3cccc(C(F)F)n3)c(OC)cc2n1.Cl` [Example 17, N-(6-(difluoromethyl)pyridin-2-yl)-6-methoxy-2-(3-methoxypropyl)-2H-indazole-5-carboxamide hydrochloride], for which the IC50 on IRAK4 (setting [2]) amounted to 11.3 nM. Besides, the efflux ratio at 120 min, 1 μM at MDR1 (P-gp) turned out to be 0.4.

The molecule `CCOc1cc2nn(C34COC(C)(C3)C4)cc2cc1C(=O)Nc1cccn(C)c1=O` [Example 86, 6-Ethoxy-N-(1-methyl-2-oxo-1,2-dihydropyridin-3-yl)-2-(1-methyl-2-oxabicyclo[2.1.1]hexan-4-yl)-2H-indazole-5-carboxamide tfifluoroacetate] had an IC50 at IRAK4 (IRAK4 MSD Biochemical Assay (1 mM ATP, 2 h) IC50 (nM)) of 3.7 nM. Further, the efflux ratio at 120 min, 1 μM on MDR1 (P-gp) amounted to 1.8.

As for `CC(C)Oc1cc2nn(C[C@H]3CCOC3)cc2cc1C(=O)Nc1cccc(C(F)F)n1` (single isomer, unassigned) [Example 20], at IRAK4 (setting [2]), the IC50 came out at 0.5 nM. Besides, at MDR1 (P-gp), the efflux ratio at 120 min, 1 μM turned out to be 0.7.
